Laboratory results published in patent publication US20160304552A1, “MODIFIED NUCLEIC ACID MOLECULES AND USES THEREOF” (MODERNA THERAPEUTICS, INC., priority 2013, published 2016).

How the values were obtained:
BJ fibroblast cells = test: Cytokine screen in BJ fibroblast cells, human CCL-5/RANTES ELISA; type: cell-based; conditions: BJ fibroblasts, 500 ng modRNA, 18 h to 22 h
Procedure: At 2 or 3 days prior to transfection, 100,000 BJ fibroblast cells (ATCC no. CRL-2522; Manassas, Va.) were harvested by treatment with trypsin-EDTA solution (LifeTechnologies, Grand Island, N.Y.) and seeded in a total volume of 500 ul EMEM medium (supplemented with 10% FCS and 10% Glutamax, both LifeTechnologies, Grand Island, N.Y.) per well in 24-well cell culture plates (Corning, Manassas, Va.). The cells were grown at 37° C. in a 5% CO2 atmosphere overnight. On the next day, 500 ng modRNA, harboring chemical modifications on the bases or the ribose units, were diluted in 25 ul final volume of OPTI-MEM (LifeTechnologies, Grand Island, N.Y.). Lipofectamine 2000 (LifeTechnologies, Grand Island, N.Y.) was used as transfection reagent and 1.0 ul was diluted in 25 ul final volume of OPTI-MEM. After 5 min incubation at room temperature, both solutions were combined and incubated an additional 15 min at room temperature. The 50 ul were added to the 500 ul cell culture medium containing the BJ fibroblast cells. The plates were then incubated as described above.
After 18 h to 22 h incubation, cell culture supernatants were collected and centrifuged at 10,000 rcf for 2 min. The cleared supernatants were transferred and analyzed with a human IFN-beta ELISA (R&D Systems, Minneapolis, Minn.; Cat. #s 41410-2) and human CCL-5/RANTES ELISA (R&D Systems, Minneapolis, Minn.; Cat. #s SRN00B) according to the manufacturer instructions. All samples were diluted until the determined values were within the linear range of the ELISA standard curves using a BioTek Synergy H1 plate reader (BioTek, Winooski, Vt.).

T7 RNA polymerase = T7 RNA polymerase (Escherichia phage T7, UniProt P00573); test: In vitro transcription yields of modified mRNA; type: biochemical; conditions: for EPO In Vitro Transcription yield: EPO mRNA made with the modified NTP(s); for GCSF In Vitro Transcription yield: GCSF mRNA made with the modified NTP(s); for Luc In Vitro Transcription yield: Luciferase mRNA made with the modified NTP(s)
Procedure: The in vitro transcription reaction generates mRNA containing modified nucleotides or modified RNA. The input nucleotide triphosphate (NTP) mix is made in-house using natural and unnatural NTPs.
A typical in vitro transcription reaction includes the following:
Incubation at 37° C. for 3 hr-5 hrs.
The crude IVT mix may be stored at 4° C. overnight for cleanup the next day. 1 U of RNase-free DNase is then used to digest the original template. After 15 minutes of incubation at 37° C., the mRNA is purified using Ambion's […]™ Kit (Austin, Tex.) following the manufacturer's instructions. This kit can purify up to 500 μg of RNA. Following the cleanup, the RNA is quantified using the NanoDrop and analyzed by agarose gel electrophoresis to confirm the RNA is the proper size and that no degradation of the RNA has occurred.
Modified mRNAs in TE buffer (1 μl) are used for Nanodrop UV absorbance readings to quantitate the yield of each modified mRNA from an in vitro transcription reaction (UV absorbance traces are not shown).

[1] = system: Rabbit Reticulocyte Lysate; test: In vitro translation screen, human GCSF modRNA (GCSF ELISA); type: biochemical; conditions: Table 20; 250 ng modRNA, 45 min, 30° C.
Procedure: (§1) The in vitro translation assay was done with the Rabbit Reticulocyte Lysate (nuclease-treated) kit (Promega, Madison, Wis.; Cat. #L4960) according to the manufacturer's instructions. The reaction buffer was a mixture of equal amounts of the amino acid stock solutions devoid of Leucine or Methionine provided in the kit.
(§2) The modRNAs of firefly Luciferase, human GCSF and human EPO, harboring chemical modifications on either the bases or the ribose units, were diluted in sterile nuclease-free water to a final concentration of 250 ng in 2.5 ul (Stock 100 ng/μl). The modRNA (250 ng) was added to the mixture of freshly prepared Rabbit Reticulocyte Lysate and reaction buffer.
(§3) Aliquots of the in vitro translation reaction containing human GCSF modRNA or human EPO mRNA were transferred and analyzed with a human GCSF-specific or EPO ELISA kit (both from R&D Systems, Minneapolis, Minn.; Cat. #s SCS50, DEP00 respectively) according to the manufacturer instructions. All samples were diluted until the determined values were within the linear range of the human GCSF or EPO ELISA standard curve.

[2] = system: Rabbit Reticulocyte Lysate; test: In vitro translation screen, firefly Luciferase modRNA (luciferase assay, relative light units); type: biochemical; conditions: Table 20; 250 ng modRNA, 45 min, 30° C.
Procedure: as §1, §2
After 45 min incubation, the reaction was stopped by placing the plate on ice. Aliquots of the in vitro translation reaction containing luciferase modRNA were transferred to white opaque polystyrene 96-well plates (Corning, Manassas, Va.; Cat. # CLS3912) and combined with 100 ul complete luciferase assay solution (Promega, Madison, Wis.). The volumes of the in vitro translation reactions were adjusted or diluted until no more than 2 million relative light units per well were detected for the strongest signal producing samples. […] The plate reader was a BioTek Synergy H1 (BioTek, Winooski, Vt.).

[3] = system: Rabbit Reticulocyte Lysate; test: In vitro translation screen, human EPO modRNA (EPO ELISA); type: biochemical; conditions: Table 20; 250 ng modRNA, 45 min, 30° C.
Procedure: as §1, §2, §3

HeLa cells [4] = test: Transfection in HeLa cells, human GCSF modRNA (GCSF ELISA of supernatant); type: cell-based; conditions: Table 22, 250 ng modRNA, 18 h to 22 h
Procedure: (§4) The day before transfection, 20.000 HeLa cells (ATCC no. CCL-2; Manassas, Va.) were harvested by treatment with Trypsin-EDTA solution (LifeTechnologies, Grand Island, N.Y.) and seeded in a total volume of 100 ul EMEM medium (supplemented with 10% FCS and 1× Glutamax) per well in a 96-well cell culture plate (Corning, Manassas, Va.). The cells were grown at 37° C. in 5% CO2 atmosphere overnight. Next day, 83 ng of Luciferase modRNA or 250 ng of human GCSF modRNA, harboring chemical modifications on the bases or the ribose units, were diluted in 10 ul final volume of OPTI-MEM (LifeTechnologies, Grand Island, N.Y.). Lipofectamine 2000 (LifeTechnologies, Grand Island, N.Y.) was used as transfection reagent and 0.2 μl were diluted in 10 ul final volume of OPTI-MEM. After 5 min incubation at room temperature, both solutions were combined and incubated additional 15 min at room temperature. Then the 20 μl were added to the 100 ul cell culture medium containing the HeLa cells. The plates were then incubated as described before.
(§5) After 18 h to 22 h incubation, cell culture supernatants of cells expressing human GCSF or human EPO were collected and centrifuged at 10.000 rcf for 2 min. The cleared supernatants were transferred and analyzed with a human GCSF-specific or EPO ELISA kit (both from R&D Systems, Minneapolis, Minn.; Cat. #s SCS50, DEP00, respectively) according to the manufacturer instructions. All samples were diluted until the determined values were within the linear range of the human GCSF or EPO ELISA standard curve.

HeLa cells [5] = test: Transfection in HeLa cells, human EPO modRNA (EPO ELISA of supernatant); type: cell-based; conditions: Table 22, 18 h to 22 h
Procedure: as §4, §5

human PBMC = test: PBMC cytokine assay, interferon-alpha production (IFN-alpha multi-subtype ELISA); type: cell-based
Procedure: 50 mL of human blood from three donors was received from Research Blood Components (Brighton, Mass.) in sodium heparin tubes. […] The tubes were centrifuged at 2000 rpm for 30 minutes with low acceleration and braking (Thermo, Waltham, Mass., 75004506). The tubes were removed and the buffy coat PBMC layers were gently transferred to a fresh 50 mL conical and washed with DPBS. The tubes were centrifuged at 1450 rpm for 10 minutes. The supernatant was aspirated and the PBMC pellets were resuspended and washed in 50 mL of DPBS. The tubes were centrifuged at 1450 rpm for 10 minutes. […] The cell suspensions were adjusted to a concentration of 3.0×10^6 cells/mL live cells. […] Within 30 minutes, transfection mixtures were added to each well at a volume of 50 μL per well. […] The transfection mixtures were then transferred to each of the human PBMC plates at 50 μL per well (6 wells per mRNA sample). The plates were then incubated at 37° C. […] In order to harvest the supernatant, plates were centrifuged at 1450 rpm for 5 min in a swinging plate rotor. The supernatant of 6 wells transfected with the same mRNA was carefully harvested and pooled in a single well of a fresh 96-well plate. Supernatants were either frozen or used fresh until ELISA analysis was done. The ability of unmodified and modified mRNA to trigger innate immune recognition as measured by interferon-alpha production.

Chain of T7 RNA polymerase (P00573 whole entry): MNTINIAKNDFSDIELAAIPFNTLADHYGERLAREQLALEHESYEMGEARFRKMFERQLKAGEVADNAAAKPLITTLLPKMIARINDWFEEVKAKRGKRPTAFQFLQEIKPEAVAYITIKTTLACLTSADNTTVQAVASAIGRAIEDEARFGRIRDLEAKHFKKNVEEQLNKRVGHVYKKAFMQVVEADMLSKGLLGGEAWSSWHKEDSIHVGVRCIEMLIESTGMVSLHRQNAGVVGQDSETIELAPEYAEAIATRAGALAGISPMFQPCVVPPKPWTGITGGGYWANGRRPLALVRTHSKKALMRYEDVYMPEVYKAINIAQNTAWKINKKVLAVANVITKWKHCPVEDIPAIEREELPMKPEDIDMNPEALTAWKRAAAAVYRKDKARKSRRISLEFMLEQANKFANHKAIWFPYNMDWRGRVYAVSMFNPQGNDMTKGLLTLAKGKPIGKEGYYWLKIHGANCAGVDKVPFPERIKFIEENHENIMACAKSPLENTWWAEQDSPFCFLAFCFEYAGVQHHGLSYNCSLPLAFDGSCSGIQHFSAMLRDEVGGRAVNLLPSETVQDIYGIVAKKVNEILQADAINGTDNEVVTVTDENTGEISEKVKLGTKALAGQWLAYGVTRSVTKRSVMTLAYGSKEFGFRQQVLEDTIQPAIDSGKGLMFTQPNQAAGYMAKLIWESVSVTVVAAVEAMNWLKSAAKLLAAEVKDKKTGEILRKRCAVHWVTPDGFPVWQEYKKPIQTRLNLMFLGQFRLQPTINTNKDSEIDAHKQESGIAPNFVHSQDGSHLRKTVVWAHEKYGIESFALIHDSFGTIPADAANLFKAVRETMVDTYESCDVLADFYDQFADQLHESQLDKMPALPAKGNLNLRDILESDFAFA

For “1-methyl-pseudouridine TP, ATP, GTP, CTP”, the “Luc mRNA RANTES” value (BJ fibroblast cells) was 5473 pg/mL, the “hEpo mRNA RANTES” value (BJ fibroblast cells) was 8780 pg/mL and the “hGCSF mRNA RANTES” value (BJ fibroblast cells) was 4816 pg/mL.
In the case of 2-thio-pseudouridine TP, ATP, GTP, CTP, the “Luc mRNA RANTES” value (BJ fibroblast cells) is reported as 1706 pg/mL, the “hEpo mRNA RANTES” value (BJ fibroblast cells) is reported as 5440 pg/mL and the “hGCSF mRNA RANTES” value (BJ fibroblast cells) is reported as 2106 pg/mL.
5-bromocytidine TP, ATP, GTP, UTP was tested, and the “Luc mRNA RANTES” value (BJ fibroblast cells) was 1380 pg/mL, the “hEpo mRNA RANTES” value (BJ fibroblast cells) was 1343 pg/mL and the “hGCSF mRNA RANTES” value (BJ fibroblast cells) was 1900 pg/mL.
For “5-hydroxymethyl-cytidine TP, ATP, GTP, UTP”, the “Luc mRNA RANTES” value (BJ fibroblast cells) was 9826 pg/mL, the “hEpo mRNA RANTES” value (BJ fibroblast cells) was 2160 pg/mL and the “hGCSF mRNA RANTES” value (BJ fibroblast cells) was 9063 pg/mL.
5-methoxy-uridine TP, ATP, GTP, UTP was tested, and the “Luc mRNA RANTES” value (BJ fibroblast cells) was 33.33 pg/mL, the “hEpo mRNA RANTES” value (BJ fibroblast cells) was -6.66 pg/mL and the “hGCSF mRNA RANTES” value (BJ fibroblast cells) was -6.66 pg/mL.
For “5-trifluromethylcytidine TP, ATP, GTP, UTP”, the “Luc mRNA RANTES” value (BJ fibroblast cells) was 2303 pg/mL, the “hEpo mRNA RANTES” value (BJ fibroblast cells) was 7593 pg/mL and the “hGCSF mRNA RANTES” value (BJ fibroblast cells) was 4203 pg/mL.
In the case of Cc1cn([C@@H]2O[C@H](COP(=O)(O)OP(=O)(O)OP(=O)(O)O)C(O)C2O)c(=S)[nH]c1=O (stereo in doubt) [00901013004 (4), 5-Methyl-2-thio-UTP], the “EPO In Vitro Transcription yield” value (T7 RNA polymerase) is reported as 0.8717 mg, the “GCSF In Vitro Transcription yield” value (T7 RNA polymerase) is reported as 0.4682 mg and the “Luc In Vitro Transcription yield” value (T7 RNA polymerase) is reported as 0.7580 mg. The “GCSF Expression” value [1] was 2319 pg/mL, the “Luc Expression (RLUs)” value [2] was 235 RLUs and the “Epo Expression” value [3] was 1100 pg/mL. For the same compound, the “GCSF Expression” value (HeLa cells [4]) was 16420 pg/mL and the “Epo Expression” value (HeLa cells [5]) was 8333 pg/mL.
For COC(=O)Cc1cn([C@@H]2O[C@H](COP(=O)(O)OP(=O)(O)OP(=O)(O)O)C(O)C2O)c(=O)[nH]c1=O (stereo in doubt) [00901013005 (358), 5-Methoxy carbonyl methyl-UTP], the “EPO In Vitro Transcription yield” value (T7 RNA polymerase) was 0.6432 mg, the “GCSF In Vitro Transcription yield” value (T7 RNA polymerase) was 0.6475 mg and the “Luc In Vitro Transcription yield” value (T7 RNA polymerase) was 0.8825 mg. For the same compound, the “Epo Expression” value (HeLa cells [5]) was 8333 pg/mL.
For CNc1ccn([C@@H]2O[C@H](COP(=O)(O)OP(=O)(O)OP(=O)(O)O)C(O)C2O)c(=O)n1 (stereo in doubt) [00901014004 (346), N4-methyl CTP], the “EPO In Vitro Transcription yield” value (T7 RNA polymerase) was 1.154 mg, the “GCSF In Vitro Transcription yield” value (T7 RNA polymerase) was 0.9028 mg and the “Luc In Vitro Transcription yield” value (T7 RNA polymerase) was 1.124 mg. For the same compound, the “Epo Expression” value (HeLa cells [5]) was 90280 pg/mL.
For Nc1nc(=O)n([C@@H]2O[C@H](COP(=O)(O)OP(=O)(O)OP(=O)(O)O)C(O)C2O)cc1C(F)(F)F (stereo partly shown) [00901016002 (351), 5-Trifluoromethyl-CTP], the “interferon-alpha concentration in PBMC supernatant” value (“interferon-alpha concentration” for short) (human PBMC; Luc mRNA, 1st value in cell) was 6670 pg/mL, the “interferon-alpha concentration” value (human PBMC; Luc mRNA, 2nd value in cell) was 2190 pg/mL and the “interferon-alpha concentration” value (human PBMC; Luc mRNA, 3rd value in cell) was 6410 pg/mL. The “interferon-alpha concentration” value (human PBMC; hEPO mRNA, 1st value in cell) was 4440 pg/mL, the “interferon-alpha concentration” value (human PBMC; hEPO mRNA, 2nd value in cell) was 3100 pg/mL and the “interferon-alpha concentration” value (human PBMC; hEPO mRNA, 3rd value in cell) was 1412.5 pg/mL. For the same compound, the “interferon-alpha concentration” value (human PBMC; hGCSF mRNA, 1st value in cell) was 6253.33 pg/mL, the “interferon-alpha concentration” value (human PBMC; hGCSF mRNA, 2nd value in cell) was 6725 pg/mL and the “interferon-alpha concentration” value (human PBMC; hGCSF mRNA, 3rd value in cell) was 6280 pg/mL.
In the case of N4-acetyl-cytidine TP, ATP, GTP, UTP, the “Luc mRNA RANTES” value (BJ fibroblast cells) is reported as 2546 pg/mL, the “hEpo mRNA RANTES” value (BJ fibroblast cells) is reported as 4360 pg/mL and the “hGCSF mRNA RANTES” value (BJ fibroblast cells) is reported as 4103 pg/mL.
In the case of pseudouridine TP, ATP, GTP, CTP, the “Luc mRNA RANTES” value (BJ fibroblast cells) is reported as 4600 pg/mL, the “hEpo mRNA RANTES” value (BJ fibroblast cells) is reported as 5490 pg/mL and the “hGCSF mRNA RANTES” value (BJ fibroblast cells) is reported as 5016 pg/mL.
